This passage reports AC50, IC50 and GI50 results from patent US20260285853A1, “COMPOUNDS AND METHODS FOR MODULATING SPLICING” (REMIX THERAPEUTICS INC., priority 2023, published 2026).

pIC50: −log10 of the molar value.

What all share (assay type): cell-based
The test system of experiment [1] is HTT mRNA. Description: Splicing RT-qPCR assay (THP), Table 2A. Particulars: Table 2A (THP); for AC50: AJ mRNA increase, read-out: HTT AJ (increase in alternative junction mRNA, AC50); for pIC50: CJ mRNA decrease, read-out: HTT CJ (decrease in canonical junction mRNA, IC50). (In general: Quantitative PCR measures a nucleic acid by following its amplification.)
In experiment [2] the test system is MYB mRNA. In words: Splicing RT-qPCR assay (THP), Table 2A. Particulars: Table 2A (THP); for AC50: AJ mRNA increase, read-out: MYB AJ (increase in alternative junction mRNA, AC50); for pIC50: CJ mRNA decrease, read-out: MYB CJ (decrease in canonical junction mRNA, IC50).
The subject of experiment [3] is HTT mRNA. In words: Gene panel canonical junction qPCR assay, decrease in CJ mRNA, Table 3. As to conditions: decrease in canonical junction (CJ) mRNA, gene panel qPCR, Table 3. The procedure, abridged:
(§1)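 Canonical exon-junction (CJ) transcript measured by 5′ nuclease RT-qPCR, normalized to GAPDH, GUSB or PPIA and to DMSO control (2^(−ΔΔCt)). A673 or K562 cells treated 24 h at 37° C with an 11-point 3-fold dilution series, top 10 uM, DMSO ≤0.25%. IC50 from 4-parameter logistic fit of percentage CJ decrease.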

Experiment [4] has as its system MYB mRNA. Described as above. Particulars: decrease in canonical junction (CJ) mRNA, gene panel qPCR, Table 3. An outline of the steps: as §1
Experiment [5] concerns SH-SY5Y (human neuroblastoma) cells. Description: Cell viability, Cell Titer Glo 2.0 assay. As to conditions: read-out: Viability SHSY5Y.3 GI50. The procedure, abridged:
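SH-SY5Y cells were exposed to serially diluted compounds in IMDM with 10% FBS and 0.1% DMSO for 72 hours at 37° C., 5% CO2. Viability was measured by CellTiter-Glo 2.0 luminescence, with medium-only wells as blank.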

For the molecule `Cc1cn2cc(NC(=O)c3c(F)cc(N4CCC(NC5CC5)CC4)c4cn(C)nc34)nc2c(CNS(C)(=O)=O)n1` [Compound 393, 4-(4-(cyclopropylamino)piperidin-1-yl)-6-fluoro-2-methyl-N-(6-methyl-8-(methylsulfonamidomethyl)imidazo[1,2-a]pyrazin-2-yl)-2H-indazole-7-carboxamide 2,2,2-trifluoroacetate], the half-maximal activity concentration (AC50) – broadly, the concentration at which the activity in the assay is half-maximal – in experiment [1] is more than 10000 nM; in experiment [2], 100 to 1000 nM. Also, the pIC50 (usually −log10 of the IC50, conventionally taken in molar units) in experiment [1] is less than 5.00; in experiment [2] it was 6.00 to 7.00; in experiment [3] it was less than 5.00; in experiment [4], 6.00 to 7.00. For the same molecule, the GI50 (as a rule, the concentration giving 50% growth inhibition) in experiment [5] was in the range of 1000 to 10000 nM.

Regarding `CCNC1CCN(c2ncc(C(=O)Nc3cn4cc(C)nc(C)c4n3)c3nn(C)cc23)CC1` [Compound 394, N-(6,8-dimethylimidazo[1,2-a]pyrazin-2-yl)-4-[4-(ethylamino)-1-piperidyl]-2-methyl-pyrazolo-[4,3-c]-pyridine-7-carboxamide], the AC50 in experiment [1] is 1000 to 10000 nM; in experiment [2], less than 100 nM. Also, the pIC50 in experiment [1] was 5.00 to 6.00; in experiment [2], 6.00 to 7.00; in experiment [3], 5.00 to 6.00; in experiment [4] it was 6.00 to 7.00. Moreover, the GI50 in experiment [5] is more than 10000 nM.

With `COc1cc2nc(C)cn2cc1NC(=O)c1c(F)cc(N2CCC(NC3CC3)CC2)c2cn(C)nc12` [Compound 395, 4-[4-(cyclopropylamino)-1-piperidyl]-6-fluoro-N-(7-methoxy-2-methyl-imidazo[1,2-a]pyridin-6-yl)-2-methyl-indazole-7-carboxamide], the AC50 in experiment [1] was more than 10000 nM; in experiment [2], less than 100 nM. The pIC50 in experiment [1] was less than 5.00; in experiment [2] it was 6.00 to 7.00; in experiment [3], less than 5.00; in experiment [4], 6.00 to 7.00. Besides, the GI50 in experiment [5] fell in the range of 100 to 1000 nM.

Consider `COc1cc2nn(C)cc2cc1NC(=O)c1c(F)cc(N2CCC(NC3CC3)CC2)c2cn(C)nc12` [Compound 396, 4-[4-(cyclopropylamino)-1-piperidyl]-6-fluoro-N-(6-methoxy-2-methyl-indazol-5-yl)-2-methyl-indazole-7-carboxamide], for which the concentration at half-maximal activity (AC50) is 100 to 1000 nM in experiment [1] and less than 100 nM in experiment [2]. The pIC50 in experiment [1] is 6.00 to 7.00; in experiment [2], more than 7.00; in experiment [3], 6.00 to 7.00; in experiment [4], more than 7.00. The GI50 in experiment [5] was less than 100 nM.

With `COc1c(NC(=O)c2c(F)cc(N3CCC(NC4CC4)CC3)c3cn(C)nc23)cn2cc(C)nc2c1C` [Compound 397, 4-[4-(cyclopropylamino)-1-piperidy1]-6-fluoro-N-(7-methoxy-2,8-dimethyl-imidazo[1,2-a]pyridin-6-y1)-2-methyl-indazole-7-carboxamide], the AC50 is more than 10000 nM in experiment [1] and 1000 to 10000 nM in experiment [2]. The pIC50 in experiment [1] was less than 5.00; in experiment [2] it was 5.00 to 6.00; in experiment [3], less than 5.00; in experiment [4] it was 5.00 to 6.00. Further, the GI50 in experiment [5] fell in the range of 1000 to 10000 nM.

Consider `COc1nc2nc(C)cn2cc1NC(=O)c1c(F)cc(N2CCC(NC3CC3)CC2)c2cn(C)nc12` [Compound 398, 4-[4-(cyclopropylamino)-1-piperidy1]-6-fluoro-N-(7-methoxy-2-methyl-imidazo-[1,2-a]pyrimidin-6-yl)-2-methyl-indazole-7-carboxamide], for which the results for the AC50 in experiment [1] and in experiment [2] were 1000 to 10000 nM and less than 100 nM, respectively. Also, the pIC50 is 5.00 to 6.00 in experiment [1], more than 7.00 in experiment [2], 5.00 to 6.00 in experiment [3] and more than 7.00 in experiment [4]. The concentration for 50% growth inhibition (GI50) in experiment [5] was in the range of 100 to 1000 nM.

As to `Cc1cn2cc(NC(=O)c3c(F)cc(N4CCC(NC5CC5)CC4)c4cn(C)nc34)cc(Oc3ccccn3)c2n1` [Compound 399], the AC50 in experiment [1] is 1000 to 10000 nM; in experiment [2] it was less than 100 nM. Moreover, the negative logarithm of the IC50 (pIC50) in experiment [1] was 5.00 to 6.00; in experiment [2], 6.00 to 7.00; in experiment [3], 5.00 to 6.00; in experiment [4] it was 6.00 to 7.00. Besides, in experiment [5], the concentration for 50% growth inhibition (GI50) was 100 to 1000 nM.

Take `CC(=O)NCc1nc(C)cn2cc(NC(=O)c3c(F)cc(N4CCC(NC5CC5)CC4)c4cn(C)nc34)nc12` [Compound 400, N-(8-(acetamido-methyl)-6-methylimidazo [1,2-a]-pyrazin-2-yl)-4-(4-(cyclopropylamino)-piper-idin-1-yl)-6-fluoro-2-meth-yl-2H-indazole-7-carbox-amide 2,2,2-trifluoro-acetate]: the half-maximal activity concentration (AC50) was more than 10000 nM in experiment [1] and 1000 to 10000 nM in experiment [2]. Further, the pIC50 in experiment [1] was less than 5.00; in experiment [2], 5.00 to 6.00; in experiment [3], less than 5.00; in experiment [4], 5.00 to 6.00. Moreover, in experiment [5], the 50% growth inhibitory concentration (GI50) is more than 10000 nM.

`Cc1nc(CN)cn2cc(NC(=O)c3c(F)cc(N4CCC(NC5CC5)CC4)c4cn(C)nc34)nc12` [Compound 401, N-[6-(aminomethyl)-8-methyl-imidazo[1,2-a]pyrazin-2-yl]-4-[4-(cyclopropylamino)-1-piperidyl]-6-fluoro-2-methyl-indazole-7-carboxamide]: the AC50 is more than 10000 nM in experiment [1] and 1000 to 10000 nM in experiment [2]. For the same molecule, the pIC50 in experiment [1] is less than 5.00; in experiment [2] it was 5.00 to 6.00; in experiment [3], less than 5.00; in experiment [4], 5.00 to 6.00. Besides, the GI50 in experiment [5] is more than 10000 nM.

As for `CCNC1CCN(c2cc(F)c(C(=O)Nc3nc4c(C)nc(C)cc4n3C)c3nn(C)cc23)CC1` [Compound 402, 4-(4-(ethylamino)-piperidin-1-yl)-6-fluoro-2-methyl-N-(1,4,6-trimethyl-1H-imidazo[4,5-c]pyridin-2-yl)-2H-indazole-7-carboxamide bis(2,2,2-trifluoroacetate)], the AC50 in experiment [1] and in experiment [2] was more than 10000 nM throughout. Further, the pIC50 in experiment [1], in experiment [2], in experiment [3] and in experiment [4] was less than 5.00 in each case. For the same molecule, in experiment [5], the GI50 was more than 10000 nM.

In the case of `Cc1c2cc(NC(=O)c3c(F)cc(N4CCC(NC5CC5)CC4)c4cn(C)nc34)cc(F)c2nn1C` [Compound 403, 4-[4-(cyclopropyl-amino)-1-piperidyl]-6-fluoro-N-(7-fluoro-2,3-dimethyl-indazol-5-y1)-2-methyl-indazole-7-carboxamide], the half-maximal activity concentration (AC50) in experiment [1] and in experiment [2] was more than 10000 nM each time. Moreover, the negative logarithm of the IC50 (pIC50) in experiment [1], in experiment [2], in experiment [3] and in experiment [4] was less than 5.00 throughout. Besides, the concentration for 50% growth inhibition (GI50) in experiment [5] lay in the range of 100 to 1000 nM.

Take `Cc1cn2cc(NC(=O)c3c(F)cc(N4CCC(NC5CC5)CC4)c4cn(C)nc34)nc2cn1` [Compound 404, 4-(4-(cyclopropylamino)-piperidin-1-yl)-6-fluoro-2-methyl-N-(6-methylimid-azo-[1,2-a]pyrazin-2-yl)-2H-indazole-7-carbox-amide 2,2,2-trifluoro-acetate]: the results for the AC50 in experiment [1] and in experiment [2] were 1000 to 10000 nM and less than 100 nM, respectively. Besides, the pIC50 in experiment [1] was less than 5.00; in experiment [2] it was more than 7.00; in experiment [3] it was less than 5.00; in experiment [4], more than 7.00. Moreover, the GI50 in experiment [5] fell in the range of 100 to 1000 nM.
